# Results published in the supplement of paper PMC6411743.
# Compound: Nc1ncnc2c1ncn2[C@@H]1O[C@H](COP(=O)(O)OP(=O)(O)OP(=O)(O)O)[C@@H](O)[C@H]1O [adenosine triphosphate]
# Test: pEC50 of ATP-induced change in protein thermal stability (2D-TPP)
# Method in brief: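 Jurkat crude lysate was treated for 10 min at room temperature with five concentrations including vehicle, heated to 12 temperatures (42–63.9 °C) for 3 min, and given NP40 and benzonase (60 min, 4 °C). After ultracentrifugation, soluble protein was quantified by TMT LC-MS/MS, with fold changes against vehicle per temperature, median-normalised. pEC50 comes from dose-response fits per replicate over adjacent temperature pairs, with hits called by permutation-based false discovery rate control. Three independent experiments.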
# 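Wherever pEC50 of ATP-induced change in protein thermal stability (2D-TPP) is given: lysate dosed with Na-ATP at 0 0.005 0.05 0.5 and 2 mM.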
# Chain of UniProt Q9NUV9 (Q9NUV9 whole entry): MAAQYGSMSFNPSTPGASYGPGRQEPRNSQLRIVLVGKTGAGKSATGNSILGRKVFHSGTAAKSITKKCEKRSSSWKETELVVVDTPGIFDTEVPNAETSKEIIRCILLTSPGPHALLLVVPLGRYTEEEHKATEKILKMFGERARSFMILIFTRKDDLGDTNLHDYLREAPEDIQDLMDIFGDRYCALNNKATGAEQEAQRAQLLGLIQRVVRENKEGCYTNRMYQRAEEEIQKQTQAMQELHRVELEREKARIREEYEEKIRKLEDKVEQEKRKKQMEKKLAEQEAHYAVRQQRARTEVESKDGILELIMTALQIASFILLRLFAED
# Chain of UniProt Q86U38 (Q86U38 whole entry): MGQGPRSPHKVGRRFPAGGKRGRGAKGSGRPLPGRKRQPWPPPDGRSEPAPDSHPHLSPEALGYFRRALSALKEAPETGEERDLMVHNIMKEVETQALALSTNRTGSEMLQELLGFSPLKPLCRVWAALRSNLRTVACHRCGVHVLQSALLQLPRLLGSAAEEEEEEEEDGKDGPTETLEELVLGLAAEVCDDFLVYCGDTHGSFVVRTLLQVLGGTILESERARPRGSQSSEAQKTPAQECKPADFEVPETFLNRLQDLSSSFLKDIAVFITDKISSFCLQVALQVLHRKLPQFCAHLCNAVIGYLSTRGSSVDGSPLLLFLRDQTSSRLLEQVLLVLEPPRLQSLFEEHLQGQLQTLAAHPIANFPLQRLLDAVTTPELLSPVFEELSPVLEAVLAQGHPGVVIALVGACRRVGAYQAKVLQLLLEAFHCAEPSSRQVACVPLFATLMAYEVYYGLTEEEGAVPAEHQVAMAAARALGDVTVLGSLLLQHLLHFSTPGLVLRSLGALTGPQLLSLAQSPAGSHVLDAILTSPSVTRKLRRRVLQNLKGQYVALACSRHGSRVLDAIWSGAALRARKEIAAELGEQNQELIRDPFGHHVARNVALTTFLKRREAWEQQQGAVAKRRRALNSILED
# Chain of UniProt Q92841 (Q92841 whole entry): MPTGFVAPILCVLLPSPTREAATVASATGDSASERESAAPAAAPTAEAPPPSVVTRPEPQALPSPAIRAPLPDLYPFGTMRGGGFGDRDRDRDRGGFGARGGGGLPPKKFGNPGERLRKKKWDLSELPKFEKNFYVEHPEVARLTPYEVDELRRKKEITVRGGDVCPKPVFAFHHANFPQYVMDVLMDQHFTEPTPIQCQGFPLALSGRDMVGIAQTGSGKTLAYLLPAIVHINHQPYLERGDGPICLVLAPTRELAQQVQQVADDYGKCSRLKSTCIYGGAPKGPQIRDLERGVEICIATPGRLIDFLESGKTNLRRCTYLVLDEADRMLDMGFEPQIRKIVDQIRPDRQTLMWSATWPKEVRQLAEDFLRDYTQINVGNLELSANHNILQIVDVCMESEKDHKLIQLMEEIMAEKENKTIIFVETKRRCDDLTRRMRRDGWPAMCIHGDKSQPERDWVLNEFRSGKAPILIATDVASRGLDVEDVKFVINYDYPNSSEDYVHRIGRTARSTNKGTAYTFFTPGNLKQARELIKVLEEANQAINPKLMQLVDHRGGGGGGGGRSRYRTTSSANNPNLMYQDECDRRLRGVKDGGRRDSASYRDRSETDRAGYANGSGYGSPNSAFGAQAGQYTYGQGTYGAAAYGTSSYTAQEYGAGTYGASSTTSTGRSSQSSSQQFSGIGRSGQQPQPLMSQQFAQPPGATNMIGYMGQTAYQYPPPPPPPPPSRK
# Chain of UniProt P57772 (P57772 whole entry): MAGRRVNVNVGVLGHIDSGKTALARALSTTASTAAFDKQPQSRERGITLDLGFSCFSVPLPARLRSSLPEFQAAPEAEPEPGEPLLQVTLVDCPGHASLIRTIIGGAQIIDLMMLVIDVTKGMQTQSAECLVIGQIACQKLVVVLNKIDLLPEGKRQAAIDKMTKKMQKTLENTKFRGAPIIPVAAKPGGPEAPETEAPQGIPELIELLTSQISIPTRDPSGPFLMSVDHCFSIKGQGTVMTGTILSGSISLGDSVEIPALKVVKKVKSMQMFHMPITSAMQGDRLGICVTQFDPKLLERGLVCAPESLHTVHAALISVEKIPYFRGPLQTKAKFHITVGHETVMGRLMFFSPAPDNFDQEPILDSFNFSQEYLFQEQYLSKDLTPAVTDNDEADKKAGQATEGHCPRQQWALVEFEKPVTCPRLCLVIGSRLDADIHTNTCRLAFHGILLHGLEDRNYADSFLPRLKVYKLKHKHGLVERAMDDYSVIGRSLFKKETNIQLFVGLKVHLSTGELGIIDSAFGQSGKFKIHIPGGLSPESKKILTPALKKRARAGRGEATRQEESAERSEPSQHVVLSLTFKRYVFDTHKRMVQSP
# Chain of UniProt Q05655 (Q05655 whole entry, looked up): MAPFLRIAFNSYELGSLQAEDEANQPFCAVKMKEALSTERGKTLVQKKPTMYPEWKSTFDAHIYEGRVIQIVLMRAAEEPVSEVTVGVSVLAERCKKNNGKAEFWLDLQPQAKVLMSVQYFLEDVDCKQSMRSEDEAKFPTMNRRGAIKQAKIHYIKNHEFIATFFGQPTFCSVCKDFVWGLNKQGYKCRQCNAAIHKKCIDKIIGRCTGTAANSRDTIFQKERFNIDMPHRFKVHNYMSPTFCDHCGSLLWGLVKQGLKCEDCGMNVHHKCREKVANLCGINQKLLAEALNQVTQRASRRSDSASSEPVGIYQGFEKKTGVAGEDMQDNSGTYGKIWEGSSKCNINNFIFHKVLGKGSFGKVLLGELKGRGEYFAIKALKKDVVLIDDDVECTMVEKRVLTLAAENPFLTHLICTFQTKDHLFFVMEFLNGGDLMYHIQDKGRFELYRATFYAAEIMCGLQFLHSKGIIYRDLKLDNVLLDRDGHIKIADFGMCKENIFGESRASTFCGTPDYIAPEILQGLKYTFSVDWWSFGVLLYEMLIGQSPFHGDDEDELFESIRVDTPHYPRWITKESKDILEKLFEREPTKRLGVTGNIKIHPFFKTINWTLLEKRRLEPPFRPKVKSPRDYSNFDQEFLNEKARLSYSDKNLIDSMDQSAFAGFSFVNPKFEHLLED
# Chain of UniProt Q9Y2Z4 (Q9Y2Z4 whole entry): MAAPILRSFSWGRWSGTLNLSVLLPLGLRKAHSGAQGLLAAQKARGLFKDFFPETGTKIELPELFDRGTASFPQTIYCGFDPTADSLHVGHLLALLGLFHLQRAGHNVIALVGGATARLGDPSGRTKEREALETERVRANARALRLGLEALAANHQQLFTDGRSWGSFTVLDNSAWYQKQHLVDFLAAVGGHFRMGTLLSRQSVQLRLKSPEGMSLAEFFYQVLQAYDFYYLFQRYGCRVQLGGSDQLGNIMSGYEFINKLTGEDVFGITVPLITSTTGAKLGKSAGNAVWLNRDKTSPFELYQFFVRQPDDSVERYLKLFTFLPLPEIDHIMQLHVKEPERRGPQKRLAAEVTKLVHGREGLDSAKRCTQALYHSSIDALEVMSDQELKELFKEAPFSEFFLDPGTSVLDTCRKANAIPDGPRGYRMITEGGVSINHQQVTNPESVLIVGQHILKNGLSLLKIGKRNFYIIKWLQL
# Chain of UniProt Q9NQW7 (Q9NQW7 whole entry): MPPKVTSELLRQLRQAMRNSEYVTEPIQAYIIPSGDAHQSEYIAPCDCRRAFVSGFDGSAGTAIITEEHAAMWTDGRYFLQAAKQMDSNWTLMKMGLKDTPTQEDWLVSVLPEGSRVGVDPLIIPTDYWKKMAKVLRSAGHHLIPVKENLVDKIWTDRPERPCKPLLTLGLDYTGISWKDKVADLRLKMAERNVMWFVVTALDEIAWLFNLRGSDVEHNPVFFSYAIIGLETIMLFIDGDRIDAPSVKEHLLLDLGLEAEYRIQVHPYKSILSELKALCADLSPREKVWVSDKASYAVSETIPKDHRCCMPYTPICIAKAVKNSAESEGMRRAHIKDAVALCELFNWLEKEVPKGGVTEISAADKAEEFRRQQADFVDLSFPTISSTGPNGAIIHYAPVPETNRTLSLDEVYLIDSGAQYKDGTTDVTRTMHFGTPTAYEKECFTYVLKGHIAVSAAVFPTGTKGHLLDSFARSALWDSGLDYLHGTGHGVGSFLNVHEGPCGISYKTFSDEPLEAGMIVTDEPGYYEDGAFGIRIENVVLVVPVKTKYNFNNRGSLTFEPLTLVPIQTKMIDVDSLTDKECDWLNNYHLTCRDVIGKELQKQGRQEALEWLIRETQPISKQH
# Chain of UniProt Q16630 (Q16630 whole entry): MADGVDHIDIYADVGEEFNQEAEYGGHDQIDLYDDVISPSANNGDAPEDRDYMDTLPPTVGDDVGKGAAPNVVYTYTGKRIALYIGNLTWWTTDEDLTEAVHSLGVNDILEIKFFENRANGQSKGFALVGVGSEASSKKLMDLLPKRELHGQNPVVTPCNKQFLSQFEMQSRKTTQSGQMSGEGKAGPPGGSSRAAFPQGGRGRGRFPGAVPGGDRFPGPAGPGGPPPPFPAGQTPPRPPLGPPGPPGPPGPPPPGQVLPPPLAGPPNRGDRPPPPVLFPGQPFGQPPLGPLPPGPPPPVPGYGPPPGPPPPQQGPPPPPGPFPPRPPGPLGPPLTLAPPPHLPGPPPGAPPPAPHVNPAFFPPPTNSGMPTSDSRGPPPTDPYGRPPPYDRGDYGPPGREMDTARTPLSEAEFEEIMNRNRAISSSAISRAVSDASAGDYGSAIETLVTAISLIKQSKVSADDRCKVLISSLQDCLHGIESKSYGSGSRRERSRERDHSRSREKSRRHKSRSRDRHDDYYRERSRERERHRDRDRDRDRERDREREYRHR
# Chain of UniProt O75794 (O75794 whole entry): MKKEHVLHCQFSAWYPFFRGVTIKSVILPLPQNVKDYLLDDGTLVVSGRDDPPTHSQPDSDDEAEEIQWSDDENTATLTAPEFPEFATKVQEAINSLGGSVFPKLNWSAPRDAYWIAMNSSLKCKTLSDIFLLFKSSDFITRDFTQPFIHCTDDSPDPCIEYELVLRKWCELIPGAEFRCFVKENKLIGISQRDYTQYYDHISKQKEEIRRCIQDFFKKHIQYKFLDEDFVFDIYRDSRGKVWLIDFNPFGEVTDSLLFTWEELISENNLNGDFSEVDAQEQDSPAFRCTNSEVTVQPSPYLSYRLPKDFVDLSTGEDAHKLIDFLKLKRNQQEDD
row,Target,pEC50
1,UniProt Q9Y6E0 (effect direction: stabilized),3.56
2,UniProt Q63HN8 (effect direction: stabilized),3
3,UniProt Q86U38 (effect direction: stabilized),< 2.7
4,UniProt Q96EK5 (effect direction: stabilized),2.96
5,UniProt Q96G23 (effect direction: stabilized),3.02
6,UniProt Q02750 (effect direction: stabilized),4.06
7,UniProt Q05655 (effect direction: stabilized),3.91
8,UniProt Q13043 (effect direction: stabilized),3.38
9,UniProt Q13131 (effect direction: stabilized),3.29
10,UniProt Q13416 (effect direction: stabilized),3.4
11,UniProt Q14240 (effect direction: stabilized),3.54
12,UniProt Q15149 (effect direction: stabilized),2.72
13,UniProt Q15418 (effect direction: stabilized),3.77
14,UniProt Q16181 (effect direction: stabilized),< 2.7
15,UniProt Q92615 (effect direction: stabilized),3.16
16,UniProt Q92888 (effect direction: stabilized),< 2.7
17,VARS2 (effect direction: stabilized) (UniProt Q5ST30),3.22
18,WDR1 (effect direction: stabilized) (UniProt O75083),< 2.7
19,XPO1 (effect direction: stabilized) (UniProt O14980),< 2.7
20,XRCC5 (effect direction: stabilized) (UniProt P13010),< 2.7
21,XYLB (effect direction: stabilized) (UniProt O75191),3.04
22,YARS (effect direction: stabilized) (UniProt P54577),3.25
23,ZC3HC1 (effect direction: stabilized) (UniProt Q86WB0),2.91
24,ZCCHC9 (effect direction: destabilized) (UniProt Q8N567),< 2.7
25,ZRANB2 (effect direction: stabilized) (UniProt O95218),2.84

# Other lines, results leading:
row,pEC50,Target
1,2.97,UniProt Q9Y530 (effect direction: stabilized)
2,3.07,UniProt Q86V81 (effect direction: destabilized)
3,3.16,UniProt Q96BW9 (effect direction: stabilized)
4,4.35,UniProt Q96C57 (effect direction: destabilized)
5,2.88,UniProt Q147X3 (effect direction: stabilized)
6,2.73,UniProt Q00537 (effect direction: stabilized)
7,< 2.7,UniProt Q08623 (effect direction: destabilized)
8,2.84,UniProt Q12905 (effect direction: stabilized)
9,3.25,UniProt Q13188 (effect direction: stabilized)
10,3.12,UniProt Q13885 (effect direction: stabilized)
11,3.59,UniProt Q14004 (effect direction: stabilized)
12,3.03,UniProt Q14289 (effect direction: stabilized)
13,3.56,UniProt Q14562 (effect direction: stabilized)
14,3.22,UniProt Q15046 (effect direction: stabilized)
15,3.24,UniProt Q15208 (effect direction: stabilized)
16,< 2.7,UniProt Q15257 (effect direction: stabilized)

row,pEC50,Target
1,3.18,UniProt Q92600 (effect direction: stabilized)
2,3.79,UniProt Q92841 (effect direction: stabilized)
3,3.83,UniProt Q92918 (effect direction: stabilized)
4,< 2.7,VPS35 (effect direction: stabilized) (UniProt Q96QK1)
5,3.24,VTN (effect direction: destabilized) (UniProt P04004)
6,< 2.7,WDR33 (effect direction: stabilized) (UniProt Q9C0J8)
7,2.85,WDR61 (effect direction: stabilized) (UniProt Q9GZS3)
8,4.09,WRN (effect direction: stabilized) (UniProt Q14191)
9,2.77,XPNPEP1 (effect direction: stabilized) (UniProt Q9NQW7)
10,< 2.7,XRCC6 (effect direction: stabilized) (UniProt P12956)
11,3.97,YARS2 (effect direction: stabilized) (UniProt Q9Y2Z4)
12,3.54,YME1L1 (effect direction: stabilized) (UniProt Q96TA2)
13,2.91,YRDC (effect direction: stabilized) (UniProt Q86U90)
14,< 2.7,ZCCHC8 (effect direction: stabilized) (UniProt Q6NZY4)
15,2.88,ZNF148 (effect direction: stabilized) (UniProt Q9UQR1)
16,3.16,ZNF740 (effect direction: stabilized) (UniProt Q8NDX6)

# Compound: Nc1nc2c(ncn2[C@@H]2O[C@H](COP(=O)(O)OP(=O)(O)OP(=O)(O)O)[C@@H](O)[C@H]2O)c(=O)[nH]1 [guanosine triphosphate]
# Test: pEC50 of GTP-induced change in protein thermal stability (2D-TPP)
# Description: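 2D thermal proteome profiling in Jurkat crude lysate. Lysate was treated 10 min at room temperature with Na-GTP (0, 0.001, 0.01, 0.1, 0.5 mM), heated to 12 temperatures (42-63.9 °C) for 3 min, and soluble protein was quantified by TMT10 LC-MS/MS. pEC50 is the median over replicates of dose-response fits (FDR-controlled hits).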
row,Target,pEC50
1,ACSF3 (effect direction: destabilized) (UniProt Q4G176),3.56
2,ALG5 (effect direction: stabilized) (UniProt Q9Y673),4.68
3,ARF3 (effect direction: stabilized) (UniProt P61204),4.12
4,ARL1 (effect direction: stabilized) (UniProt P40616),3.92
5,ARL3 (effect direction: stabilized) (UniProt P36405),4.36
6,CDC123 (effect direction: stabilized) (UniProt O75794),< 3.3
7,COASY (effect direction: stabilized) (UniProt Q13057),4.03
8,CPT1A (effect direction: stabilized) (UniProt P50416),4.62
9,DDX1 (effect direction: stabilized) (UniProt Q92499),4.57
10,DHX37 (effect direction: stabilized) (UniProt Q8IY37),3.8
11,DNM1 (effect direction: stabilized) (UniProt Q05193),3.62
12,DOCK2 (effect direction: stabilized) (UniProt Q92608),3.81
13,DRG1 (effect direction: stabilized) (UniProt Q9Y295),4.7
14,EEFSEC (effect direction: stabilized) (UniProt P57772),3.92
15,EIF5B (effect direction: stabilized) (UniProt O60841),3.81
16,FPGT (effect direction: stabilized) (UniProt O14772),3.91
17,GBP1 (effect direction: stabilized) (UniProt P32455),3.82
18,GNL2 (effect direction: stabilized) (UniProt Q13823),4.2

# Second part, the target after the results:
row,pEC50,Target
1,3.69,ABCD3 (effect direction: stabilized) (UniProt P28288)
2,3.56,ALG1 (effect direction: stabilized) (UniProt Q9BT22)
3,4.57,ARF4 (effect direction: stabilized) (UniProt P18085)
4,4.1,ARL6 (effect direction: stabilized) (UniProt Q9H0F7)
5,4.22,ATAD3A (effect direction: stabilized) (UniProt Q9NVI7)
6,3.88,ATL2 (effect direction: stabilized) (UniProt Q8NHH9)
7,< 3.3,CPSF6 (effect direction: stabilized) (UniProt Q16630)
8,3.92,DHX30 (effect direction: destabilized) (UniProt Q7L2E3)
9,3.78,DNM2 (effect direction: stabilized) (UniProt P50570)
10,4.21,ETNK1 (effect direction: stabilized) (UniProt Q9HBU6)
11,3.74,GDI2 (effect direction: stabilized) (UniProt P50395)
12,4.04,GFM1 (effect direction: stabilized) (UniProt Q96RP9)
13,3.72,GIMAP4 (effect direction: stabilized) (UniProt Q9NUV9)
14,4.24,GNAO1 (effect direction: stabilized) (UniProt P09471)
15,3.6,GNAQ (effect direction: stabilized) (UniProt P50148)
16,4.95,GPN1 (effect direction: stabilized) (UniProt Q9HCN4)
